Assay results taken from US8920334B2, “Method of breath analysis for determining liver capacity or microcirculation using 13C-labeled methacetin substrate” (Freie Universitaet Berlin, priority 2005, dated 2014).

What was measured:
[1] = cited from earlier work
[2] = molecular target: T1, enzyme CYP1A2 in the liver (Homo sapiens, UniProt P05177); assay: 13C-methacetin breath test (LiMAx) before and after partial liver resection; format: in vivo; conditions: patients, mean
T1 construct: demethylated to paracetamol in a rapid one-step reaction by the enzyme CYP1A2 in the liver; from tissue; host or cells: liver of living patients (in vivo)
T1 sequence (P05177 1-516): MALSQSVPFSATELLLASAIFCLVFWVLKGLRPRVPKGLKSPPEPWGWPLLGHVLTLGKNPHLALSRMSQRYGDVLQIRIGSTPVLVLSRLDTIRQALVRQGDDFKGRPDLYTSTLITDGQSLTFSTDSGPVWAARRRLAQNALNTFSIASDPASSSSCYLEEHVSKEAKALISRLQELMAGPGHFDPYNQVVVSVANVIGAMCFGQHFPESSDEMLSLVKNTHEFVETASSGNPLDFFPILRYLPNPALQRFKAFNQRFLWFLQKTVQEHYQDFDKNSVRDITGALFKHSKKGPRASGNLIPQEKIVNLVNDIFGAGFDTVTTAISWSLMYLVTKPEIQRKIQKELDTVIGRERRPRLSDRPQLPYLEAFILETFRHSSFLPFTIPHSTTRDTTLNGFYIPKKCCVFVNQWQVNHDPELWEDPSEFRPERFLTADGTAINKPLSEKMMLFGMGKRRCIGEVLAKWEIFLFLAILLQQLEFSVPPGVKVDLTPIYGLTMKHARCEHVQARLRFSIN
Experimental: This object is achieved by an analysis method, for determining a functional parameter of an organ of a human or animal individual. According to this analysis method, the ^13CO2 content in the air exhaled by the individual is measured, the ^13CO2 in the body of the individual being formed enzymatically from a substrate that has been administered beforehand to the individual, and then being exhaled by the individual. The measurement of the ^13CO2 content in the air exhaled by the individual is carried out using a suitable measurement device. The maximum reaction rate of the substrate in the body of the individual is determined via a change of the measured ^13CO2 content in the air exhaled by the individual using zero-order enzyme kinetics. The analysis method according to the invention therefore proceeds from a consideration of enzyme kinetics.
In a particularly preferred embodiment of the invention, the maximum reaction rate (LiMAx) is calculated through the converted quantity of substrate per unit of time in μg/h/kg bodyweight at variable times at which the maximum value is reached, such that genuine quantification of the maximum functional liver capacity can be made. The calculation is carried out according to the following formula (1), which describes zero-order enzyme kinetics: […]
Here, δ^13C is the difference between the ^13CO2/^12CO2 ratio of the sample and the Pee Dee Belmite (PDB) standard in delta per mil, RPDB is the ^13CO2/^12CO2 ratio of the PDB standard (0.0112375), P is the CO2 production rate (300 mmol/h×surface area of body in m^2), M is the molecular weight of the substrate, and KG is the actual bodyweight of the individual in kg.
The inundation time is preferably used to assess the microcirculation in the liver, so as to be able to detect microcirculation disturbances. Assuming the quickest possible inundation by in particular intravenous bolus injection and substrate excess and the high first-pass effect of methacetin or another substrate, the hepatic microcirculation can be assessed particularly advantageously. The inundation time needed to reach the maximum reaction rate tvmax is determined, said inundation time lengthening in the presence of microcirculation disturbances, since in this case the substrate inundation is not uniformly or completely delayed in all areas of the liver. Liver perfusion can thus be assessed.
The rapid substrate inundation required for the enzyme-kinetic evaluation is ensured by the fact that ^13C methacetin is administered intravenously in a bolus. The intravenous bolus injection ensures an immediate and complete substrate inundation in the liver. The absorption of the test substance ^13C-methacetin is no longer the step that determines the reaction rate. With the preferred dose of 2 mg methacetin per kg bodyweight, a temporary enzyme utilization is also permitted in patients with a healthy liver by a short-term substrate excess. This permits the actual quantitative expressiveness, since zero-order enzyme kinetics are achieved, and only this permits a statement concerning the maximum functional capacity of an enzyme system.
In the context of a prospective study, a method, which is discussed in more detail below, was used to evaluate liver function before and after partial liver resection in a number of patients: • 1. […]

Row | SMILES | solubility ([1]; in water or in an aqueous buffer) | stability of aqueous solution (crystallization) ([1]; usually aqueous solution) | inundation time (tvmax) until maximum reaction rate ([2]; after partial liver resection) | inundation time (tvmax) until maximum reaction rate ([2]; before partial liver resection) | maximum functional liver capacity (LiMAx) ([2]; post-operative day 1 (POD1) after partial liver resection) | maximum functional liver capacity (LiMAx) ([2]; post-operative day 10 (POD10) after partial liver resection) | maximum functional liver capacity (LiMAx) ([2]; pre-operative (before partial liver resection), intravenous 13C-methacetin solution)
1 | COc1ccc(NC(C)=O)cc1 [methacetin] | extremely sparingly soluble | crystallizes out of a usually aqueous solution within a period of hours to days |  |  |  |  | 
2 | COc1ccc(NC(C)=O)cc1 [^13C-methacetin] |  |  | 53.5 ± 7.51 min | 11.9 ± 2.17 min | 141 ± 13 µg/h/kg | 249 ± 17 µg/h/kg | 301 ± 24 µg/h/kg
